What all share (format): cell-based
Experiment [1] concerns IL3000 T. congolense (drug sensitive) strain. The experiment in a line: In vitro Alamar Blue 72 hrs drug sensitivity assay for T. congolense. As to conditions: Trypanosoma congolense, IL3000 T. congolense bloodstream form, read-out: T. congo Act. The essentials:
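Bloodstream-form IL3000 trypanosomes in HMI medium with 20% bovine serum were exposed to compound for 69 hrs at 34° C, 5% CO2. Resazurin was then added for 3 hrs and fluorescence read (ex 536/em 588 nm). IC50 came from 11-point sigmoidal curves over at least three independent runs.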

The subject of experiment [2] is STIB 719/ILRAD 560 T. vivax (drug sensitive) strain. The experiment in a line: Ex vivo Alamar Blue 48 hrs drug sensitivity assay for T. vivax. To be noted: Trypanosoma vivax, STIB719; STIB 719/ILRAD 560 T. vivax bloodstream form, ex vivo, Alamar Blue, 48 hrs; read-out: T. vivax Act. The essentials: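 Bloodstream-form trypanosomes taken from a parasitaemic mouse were exposed to compound for 45 h at 37°C, 5% CO2 in HMI medium with 20% bovine serum. Resazurin added for a further 3 h, fluorescence read at ex 536/em 588 nm. IC50 from 11-point sigmoidal curves, at least three independent runs.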

Experiment [3] relates to STIB 806 K T. evansi (drug sensitive) strain. The experiment in a line: In vitro Alamar Blue 72 hrs drug sensitivity assay for T. evansi. To be noted: STIB 806 K T. evansi bloodstream form, Alamar Blue, 72 hrs; read-out: T. evansi Act. How it is done:
In vitro Alamar Blue 72 hrs drug sensitivity assay for T. evansi. Compounds were tested in vitro for chemotherapeutic efficacy against the STIB 806 K T. evansi (drug sensitive) strain, using an Alamar Blue assay. Test compounds were prepared as 10 mg/mL DMSO stocks for each assay run. Compounds were assayed in at least three separate, independent test runs and an 11-point dilution curve was used to determine the IC50 values. Bloodstream form trypanosomes were incubated with test compounds for 69 hrs at 37° C. in a humidified atmosphere containing 5% CO2, supported in HMI media containing 15% horse serum. Thereafter, 10 μL of Resazurin dye (12.5 mg in 100 mL of phosphate buffered saline, Sigma-Aldrich, Buchs, Switzerland) were added for an additional 3 hrs. Plates were then read using a fluorescent plate reader (Spectramax, Gemini XS, Bucher Biotec, Basel, Switzerland) using an excitation wavelength of 536 nm and an emission wavelength of 588 nm. Data points were averaged to generate sigmoidal dose-response curves and IC50 values were determined using Softmax Pro 5.2 software.
A general note: The colour change of resazurin is a common sign of viable cells or microbes.

The structures appear in SMILES notation. pIC50: −log10 of the molar value.

Data on 8 compounds can be found in patent US10420772B2, “Animal and human anti-trypanosomonal and anti-leishmania agents” (Celgene Corporation, priority 2016, dated 2019).

As for `CC1(Nc2ncc3nc(Nc4cc(F)cc(Cl)c4)n([C@H]4CC[C@@H](CN)CC4)c3n2)CCOCC1` [A-47, 9-((1s,4s)-4-(aminomethyl)cyclohexyl)-N8-(3-chloro-5-fluorophenyl)-N2-(4-methyltetrahydro-2H-pyran-4-yl)-9H-purine-2,8-diamine], the pIC50 in experiment [1], in experiment [2] and in experiment [3] was greater than 6.82 in each case.
For the compound `CC1(Nc2ncc3nc(Nc4cccc(Cl)c4)n(C4CCC(CN)CC4)c3n2)CCOCC1` (stereo not drawn) [A-1, 9-((1s,4s)-4-(aminomethyl)cyclohexyl)-N8-(3-chlorophenyl)-N2-(4-methyltetrahydro-2H-pyran-4-yl)-9H-purine-2,8-diamine], the pIC50 in experiment [1], in experiment [2] and in experiment [3] was greater than 6.82 each time.
Turning to `CC1(Nc2ncc3nc(Nc4cccc(C(F)(F)F)c4)n([C@H]4CC[C@@H](CN)CC4)c3n2)CCOCC1` [A-28, 9-((1s,4s)-4-(aminomethyl)cyclohexyl)-N2-(4-methyltetrahydro-2H-pyran-4-yl)-N8-(3-(trifluoromethyl)phenyl)-9H-purine-2,8-diamine], the pIC50 in experiment [1], in experiment [2] and in experiment [3] was greater than 6.82 throughout.
As to `CCC(C)(C)Nc1ncc2nc(Nc3cccc(C(F)(F)F)c3)n([C@H]3CC[C@@H](CN)CC3)c2n1` [A-13, 9-((1s,4s)-4-(aminomethyl)cyclohexyl)-N2-tert-pentyl-N8-(3-(trifluoromethyl)phenyl)-9H-purine-2,8-diamine], the pIC50 in experiment [1], in experiment [2] and in experiment [3] was greater than 6.82 in each case.
Regarding `CC1(Nc2ncc3nc(Nc4cccc(Cl)c4)n([C@H]4CC[C@@H](CN5CCCCC5)CC4)c3n2)CCOCC1` [A-40, N8-(3-chlorophenyl)-N2-(4-methyltetrahydro-2H-pyran-4-yl)-9-((1s,4s)-4-(piperidin-1-ylmethyl)cyclohexyl)-9H-purine-2,8-diamine], the pIC50 in experiment [1], in experiment [2] and in experiment [3] was greater than 6.82 in each case.
Turning to `CC1(Nc2ncc3nc(Nc4cc(F)cc(F)c4)n([C@H]4CC[C@@H](CN)CC4)c3n2)CCOCC1` [A-44, 9-((1s,4s)-4-(aminomethyl)cyclohexyl)-N8-(3,5-difluorophenyl)-N2-(4-methyltetrahydro-2H-pyran-4-yl)-9H-purine-2,8-diamine], the pIC50 in experiment [1], in experiment [2] and in experiment [3] was greater than 6.82 throughout.
As for `CC1(Nc2ncc3nc(Nc4cc(Cl)cc(C(F)(F)F)c4)n([C@H]4CC[C@@H](CN)CC4)c3n2)CCOCC1` [A-36, 9-((1s,4s)-4-(aminomethyl)cyclohexyl)-N8-(3-chloro-5-(trifluoromethyl)phenyl)-N2-(4-methyltetrahydro-2H-pyran-4-yl)-9H-purine-2,8-diamine], the pIC50 in experiment [1] is greater than 6.82; in experiment [2], greater than 6.82; in experiment [3] it was 6.46 to 6.82.
For `CC1(Nc2ncc3nc(Nc4cccc(Cl)c4)n([C@H]4CC[C@H](CN)CC4)c3n2)CCOCC1` [A-7, 9-((1r,4r)-4-(aminomethyl)cyclohexyl)-N8-(3-chlorophenyl)-N2-(4-methyltetrahydro-2H-pyran-4-yl)-9H-purine-2,8-diamine], the pIC50 in experiment [1], in experiment [2] and in experiment [3] was greater than 6.82 throughout.
